In US20160311788A1, “Antifouling Compounds And Use Thereof” (National University of Singapore, priority 2008, published 2016):
Where two headings read alike, the source gives them in different places.

Assays:
[1] = system: marine bacteria strain S1; assay: disc inhibition assay, strain S1; type: cell-based, Rhodovulum iodosum; settings: for zone of inhibition at 50 µg/disc: Rhodovulum iodosum, S1
Method: (§1) The disc inhibition assay was used. This assay is a conventional method routinely used for screening antibacterial compounds to determine degree of susceptibility to antibacterial compounds. The diameter of the zone of inhibition is proportional to the degree of susceptibility of the bacterial strain. The compounds were tested against 13 strains of marine bacteria isolated from Singapore coastal waters.
(§2) 13 strains of marine bacteria were isolated from fouling communities located in the coastal waters around Singapore. These were characterized in earlier studies and reported in Teo et al. (U.S. patent application Ser. No. 11/265,833) and Choong et al (in prep). In addition, four reference bacterial strains were added tested: Escherichia coli (Strain K12, ATCC 15222), E. coli (strain DH5a), Pseudomonas aeruginosa (strain LMG 12228; ATCC 15692) and P. putida (strain KT2440; ATCC 47054). All the bacteria were also tested against five antibiotics: ampicillin (AMP), tetracycline (TETR), erythromycin (ERY), chloramphenicol (CHL) and streptomycin (STREP).
(§3) Disks comprising the compounds to be tested were prepared as follows. The antibacterial assay, the pure compounds were made up to a concentration of 2 mgml^−1 in DMSO. 25 μl of the stock was pipetted onto each 6 mm sterile disc (Macherey-Nagel #484000) to obtain 50 μg of compound per disc. Equivalent volume of DMSO was used inoculated for the control.
(§4) For all disk inhibition assays, bacterial cultures were grown in marine broth (Pronadisa #1217.00). Sterile swabs dipped into the cultures were used to inoculate Marine Agar plates with a bacterial lawn by smearing the culture over the surface. After inoculating the plates, discs with antibiotics, pharmaceuticals or control blanks were placed on each plate. Each concentration of antibiotic or pharmaceutical was tested with two replicates. After the disks were placed on the agar surface, plates were incubated overnight in the dark at 35° C. After incubation, plates were examined for zones of inhibition or clearing around control and treated disks. The diameter of any zone of clearing or inhibition was measured using Vernier calipers. There were two replicates per treatment, and the average was taken.

[2] = system: marine bacteria strain S3; assay: disc inhibition assay, strain S3; type: cell-based, Erythrobacter aquimaris; settings: for zone of inhibition at 50 µg/disc: Qipengyuania aquimaris, S3, 24 h
Method: as §1, §2, §3, §4

[3] = system: marine bacteria strain S4; assay: disc inhibition assay, strain S4; type: cell-based, Bacillus algicola; settings: for zone of inhibition at 50 µg/disc: Guptibacillus algicola, S4, 24 h
Method: as §1, §2, §3, §4

[4] = system: marine bacteria strain S9; assay: disc inhibition assay, strain S9; type: cell-based, Bacillus algicola; settings: for zone of inhibition at 50 µg/disc: Guptibacillus algicola, S9, 24 h
Method: as §1, §2, §3, §4

[5] = system: marine bacteria strain S10; assay: disc inhibition assay, strain S10; type: cell-based, Halobacillus trueperi; settings: for zone of inhibition at 50 µg/disc: Halobacillus trueperi, S10, 24 h
Method: as §1, §2, §3, §4

[6] = system: marine bacteria strain S14; assay: disc inhibition assay, strain S14; type: cell-based, Vibrio probioticus; settings: strain 14, 50 μg of compound per disc
Method: as §1, §2
(§5) Disks comprising the compounds to be tested were prepared as follows. The antibacterial assay, the pure compounds were made up to a concentration of 2 mgml^−1 in DMSO. […] Equivalent volume of DMSO was used inoculated for the control.
as §4

[7] = system: marine bacteria strain S16; assay: disc inhibition assay, strain S16; type: cell-based, Pseudoalteromonas piscicida; settings: for zone of inhibition at 50 µg/disc: Pseudoalteromonas piscicida, S16, 24 h
Method: as §1, §2, §3, §4

[8] = system: marine bacteria strain S17; assay: disc inhibition assay, strain S17; type: cell-based, Gordonia terrae; settings: for zone of inhibition at 50 µg/disc: Gordonia terrae, S17, 24 h
Method: as §1, §2, §3, §4

[9] = system: marine bacteria strain S18; assay: disc inhibition assay, strain S18; type: cell-based, Microbacterium esteraromaticum; settings: for zone of inhibition at 50 µg/disc: Microbacterium esteraromaticum, S18, 24 h
Method: as §1, §2, §5, §4

[10] = system: marine bacteria strain S27; assay: disc inhibition assay, strain S27; type: cell-based, Tenacibaculum lutimaris; settings: strain 27, 50 μg of compound per disc; for zone of inhibition at 50 µg/disc: Tenacibaculum lutimaris, S27, 24 h, read-out: zone of inhibition
Method: as §1, §2, §3, §4

[11] = system: marine bacteria strain S28; assay: disc inhibition assay, strain S28; type: cell-based, Arthrobacter protophormial; settings: for zone of inhibition at 50 µg/disc: Arthrobacter, S28, 24 h
Method: as §1, §2, §3, §4

[12] = system: marine bacteria strain S29; assay: disc inhibition assay, strain S29; type: cell-based, Bacillus hwajinpoensis; settings: for zone of inhibition at 50 µg/disc: Guptibacillus hwajinpoensis, S29, 24 h
Method: as §1, §2, §3, §4

[13] = system: marine bacteria strain S30; assay: disc inhibition assay, strain S30; type: cell-based, Bacillus borophilicus; settings: for zone of inhibition at 50 µg/disc: Bacillus, S30, 24 h
Method: as §1, §2, §3, §4

[14] = strain 1, 50 μg of compound per disc
[15] = strain 3, 50 μg of compound per disc, read-out: zone of inhibition
[16] = strain 4, 50 μg of compound per disc, read-out: zone of inhibition
[17] = strain 9, 50 μg of compound per disc, read-out: zone of inhibition
[18] = strain 10, 50 μg of compound per disc, read-out: zone of inhibition
[19] = strain 16, 50 μg of compound per disc
[20] = strain 17, 50 μg of compound per disc, read-out: zone of inhibition
[21] = strain 18, 50 μg of compound per disc, read-out: zone of inhibition
[22] = strain 28, 50 μg of compound per disc, read-out: zone of inhibition
[23] = strain 29, 50 μg of compound per disc, read-out: zone of inhibition
[24] = strain 30, 50 μg of compound per disc, read-out: zone of inhibition
[25] = strain 4, 50 μg of compound per disc
[26] = strain 9, 50 μg of compound per disc
[27] = strain 10, 50 μg of compound per disc
[28] = strain 18, 50 μg of compound per disc
[29] = strain 28, 50 μg of compound per disc
[30] = strain 29, 50 μg of compound per disc
[31] = strain 30, 50 μg of compound per disc

CCCCC(C(=O)N1CCCCC1)c1ccccc1 (centres unmarked) [Compound 12.1, 2-Phenyl-1-(piperidin-1-yl)hexan-1-one]
−: zone of inhibition [1, 14] | zone of inhibition [6] | zone of inhibition [7, 19]
5 to 10 mm: zone of inhibition at 50 µg/disc [2, 15]
2 to 5 mm: zone of inhibition at 50 µg/disc [3, 16] | zone of inhibition at 50 µg/disc [4, 17] | zone of inhibition at 50 µg/disc [5, 18] | zone of inhibition at 50 µg/disc [8, 20] | zone of inhibition at 50 µg/disc [9, 21] | zone of inhibition at 50 µg/disc [10] | zone of inhibition at 50 µg/disc [11, 22] | zone of inhibition at 50 µg/disc [12, 23] | zone of inhibition at 50 µg/disc [13, 24]

COC1(c2ccc(Cl)cc2)CC[N+](C)(CCC(C(=O)N(C)C)(c2ccccc2)c2ccccc2)CC1 (centres unmarked) [Compound 5.2, N,O-dimethyl Loperamide]
had activity: antibacterial activity in words ([1]; strain S1, text)
5 to 10 mm: zone of inhibition at 50 µg/disc [2] | zone of inhibition at 50 µg/disc [3] | zone of inhibition at 50 µg/disc [4] | zone of inhibition at 50 µg/disc [5] | zone of inhibition at 50 µg/disc [11] | zone of inhibition at 50 µg/disc [12] | zone of inhibition at 50 µg/disc [13]
2 to 5 mm: zone of inhibition at 50 µg/disc [1] | zone of inhibition at 50 µg/disc [7] | zone of inhibition at 50 µg/disc [8]
−: zone of inhibition [6] | zone of inhibition [10]
> 10 mm: zone of inhibition at 50 µg/disc [9]

CCCCCC(=O)N1CCCCC1 [Compound 11.1]
5 to 10 mm: zone of inhibition at 50 µg/disc ([7]; strain 16, 50 μg of compound per disc, read-out: zone of inhibition)
−: zone of inhibition [1, 14] | zone of inhibition ([2]; strain 3, 50 μg of compound per disc) | zone of inhibition [3, 25] | zone of inhibition [4, 26] | zone of inhibition [5, 27] | zone of inhibition [6] | zone of inhibition ([8]; strain 17, 50 μg of compound per disc) | zone of inhibition [9, 28] | zone of inhibition [10] | zone of inhibition [11, 29] | zone of inhibition [12, 30] | zone of inhibition [13, 31]
susceptible: antibacterial activity in words ([7]; strain S16)

CN(C)C(=O)C(CC[N+]1(O)CCC(O)(c2ccc(Cl)cc2)CC1)(c1ccccc1)c1ccccc1 (centres unmarked) [Compound 5.1]
−: zone of inhibition [1, 14] | zone of inhibition [3, 25] | zone of inhibition [4, 26] | zone of inhibition [5, 27] | zone of inhibition [6] | zone of inhibition [9, 28] | zone of inhibition [10] | zone of inhibition [11, 29] | zone of inhibition [12, 30] | zone of inhibition [13, 31]
2 to 5 mm: zone of inhibition at 50 µg/disc [2] | zone of inhibition at 50 µg/disc [7] | zone of inhibition at 50 µg/disc [8]

C=CCCCCC(C(=O)N1CCCCC1)c1ccccc1 (centres unmarked) [Compound 12.4]
> 10 mm: zone of inhibition at 50 µg/disc [2, 15]
−: zone of inhibition [1, 14] | zone of inhibition [6] | zone of inhibition [7, 19] | zone of inhibition [11, 29] | zone of inhibition [13, 31]
2 to 5 mm: zone of inhibition at 50 µg/disc [3, 16] | zone of inhibition at 50 µg/disc [4, 17] | zone of inhibition at 50 µg/disc [5, 18] | zone of inhibition at 50 µg/disc [8, 20] | zone of inhibition at 50 µg/disc [10] | zone of inhibition at 50 µg/disc [12, 23]
5 to 10 mm: zone of inhibition at 50 µg/disc [9, 21]

C=CCCCCC(CCCC)C(=O)N1CCCCC1 (centres unmarked) [Compound 12.7]
−: zone of inhibition [6] | zone of inhibition [7, 19]
> 10 mm: zone of inhibition at 50 µg/disc [2, 15] | zone of inhibition at 50 µg/disc [9, 21]
5 to 10 mm: zone of inhibition at 50 µg/disc [3, 16] | zone of inhibition at 50 µg/disc [4, 17] | zone of inhibition at 50 µg/disc [5, 18] | zone of inhibition at 50 µg/disc [8, 20]
2 to 5 mm: zone of inhibition at 50 µg/disc ([1]; strain 1, 50 μg of compound per disc, read-out: zone of inhibition) | zone of inhibition at 50 µg/disc [10] | zone of inhibition at 50 µg/disc [11, 22] | zone of inhibition at 50 µg/disc [12, 23] | zone of inhibition at 50 µg/disc [13, 24]
